Measurements taken from patent US20040102423A1, “Spironolactone and angiotensin II antagonist combination therapy for treatment of congestive heart failure” (G.D. Searle & Co., priority 1995, published 2004).

What was measured:
[1] = biological target: angiotensin II AT1 receptor; assay: Assay A: Angiotensin II binding activity, rat uterine membrane preparation, 125I-AII displacement
Description: Assay A: Antiotensin II Binding Activity
Compounds of the invention were tested for ability to bind to the smooth muscle angiotensin II receptor using a rat uterine membrane preparation. […] Rat uterine membranes were prepared from fresh tissue. All procedures were carried out at 4° C. Uteri were stripped of fat and homogenized in phosphate-buffered saline at pH 7.4 containing 5 mM EDTA. The homogenate was centrifuged at 1500×g for 20 min., and the supernatant was recentrifuged at 100,000×g for 60 min. The pellet was resuspended in buffer consisting of 2 mM EDTA and 50 mM Tris-HCl (pH 7.5) to a final protein concentration of 4 mg/ml. […] The reaction was initiated by the addition of membrane protein and the mixture was incubated at 25° C. for 60 min. The incubation was terminated with ice-cold 50 mM Tris-HCl (pH 7.5) and the mixture was filtered to separate membrane-bound labelled peptide from the free ligand. The incubation tube and filter were washed with ice-cold buffer. Filters were assayed for radioactivity in a Micromedic gamma counter. Nonspecific binding was defined as binding in the presence of 10 μM of unlabelled AII. Specific binding was calculated as total binding minus nonspecific binding. […] Binding data were analyzed by a nonlinear least-squares curve fitting program.

rabbit aortic rings = assay: Assay B: In vitro vascular smooth muscle response for AII (antagonist activity, pA2); type: cell-based; conditions: for Kb: Oryctolagus cuniculus, two values in a cell = two determinations
Description: Assay B: In Vitro Vascular Smooth Muscle-Response for AII
The compounds of the invention were tested for antagonist activity in rabbit aortic rings. Male New Zealand white rabbits (2-2.5 kg) were sacrificed using an overdose of pentobarbital and exsanguinated via the carotid arteries. The thoracic aorta was removed, cleaned of adherent fat and connective tissue and then cut into 3-mm ring segments. The endothelium was removed from the rings by gently sliding a rolled-up piece of filter paper into the vessel lumen. The rings were then mounted in a water-jacketed tissue bath, maintained at 37° C., between moveable and fixed ends of a stainless steel wire with the moveable end attached to an FT03 Grass transducer coupled to a Model 7D Grass Polygraph for recording isometric force responses. The bath was filled with 20 ml of oxygenated (95% oxygen/5% carbon dioxide) Krebs solution of the following composition (mM): 130 NaCl, 15 NaHCO3, […], 1.2 NaH2PO4, 1.2 MgSO4, 2.5 CaCl2, and 11.4 glucose. The preparations were equilibrated for one hour before approximately one gram of passive tension was placed on the rings. Angiotensin II concentration-response curves were then recorded (3×10^−10 to 1×10^−5 M). Each concentration of AII was allowed to elicit its maximal contraction, and then AII was washed out repeatedly for 30 minutes before rechallenging with a higher concentration of AII. Aorta rings were exposed to the test antagonist at 10^−5 M for 5 minutes before challenging with AII. Adjacent segments of the same aorta ring were used for all concentration-response curves in the presence or absence of the test antagonist. The effectiveness of the test compound was expressed in terms of pA2 values and were calculated according to H. O. Schild [Br. J. Pharmacol. Chemother., 2, 189-206 (1947)]. The pA2 value is […] which increases the EC50 value for AII by a factor of two. Each test antagonist was evaluated in aorta rings from two rabbits.

SMILES	IC50 [1]	Kb (rabbit aortic rings)	Assay B pA2 (result given as symbol) (rabbit aortic rings)
CCCCc1nc(C2CCCCC2)n(Cc2ccc(-c3ccccc3-c3nnn[nH]3)cc2)n1 [Compound 76]	5400 nM	3020 nM	–
CCCCc1nc(CCCC)n(Cc2ccc(-c3ccccc3C(=O)NNS(=O)(=O)C(F)(F)F)cc2)n1 [Compound 16]	6.4 nM	1.12 nM	–
CCCCc1nc(-c2ccccc2OC)n(Cc2ccc(-c3ccccc3-c3nnn[nH]3)nc2)n1 [Compound 277]	190 nM	288 nM	–
CCCCc1nn(Cc2ccc3ccccc3c2)c(=O)n1Cc1ccc(-c2ccccc2-c2nn[nH]n2)cc1 [Compound 110]	590 nM	398 nM	–
CCCCc1nc(Cl)nn1Cc1ccc(-c2ccccc2C(=O)O)cc1 [Compound 17]	4 nM	2.29 nM	–
CCCCc1nc(CCCC)n(Cc2ccc(-c3ccccc3C(=O)NN)cc2)n1 [Compound 15]	16 nM	4.9 nM	–
CCCCc1nc(CCCC)n(Cc2ccc(-n3c(Cl)cc(Cl)c3-c3nnn[nH]3)cc2)n1 [Compound 154]	97 nM	6.46 nM	–
CCCCc1nn(C(=O)CCC)c(=O)n1Cc1ccc(-c2ccccc2-c2nn[nH]n2)cc1 [Compound 106]	48 nM	20 nM	–
CCCCc1nc(CCC2CCCCC2)n(Cc2ccc(-c3ccccc3-c3nnn[nH]3)cc2)n1 [Compound 53]	65 nM	27.5 nM	–
CCCCc1ncnn1Cc1ccc(-c2ccccc2-c2nnn[nH]2)cc1 [Compound 64]	54 nM	100 nM	–
CCCCc1nc(CCc2ccccc2)n(Cc2ccc(-c3ccccc3-c3nnn[nH]3)cc2)n1 [Compound 36]	1400 nM	1200 nM	–
CCCCn1nc(C(C#N)CCC)n(Cc2ccc(-c3ccccc3-c3nn[nH]n3)cc2)c1=O (stereo not shown) [Compound 117]	170 nM	316 nM	–
CCCCc1nc(-c2c(F)cccc2F)nn1Cc1ccc(-c2ccccc2-c2nnn[nH]2)nc1 [Compound 280]	480 nM	389 nM	–
CCCc1nc(CCC)n(Cc2ccc(-c3ccccc3-c3nnn[nH]3)nc2)n1 [Compound 257]	160 nM	234 nM	–
CCCCc1nc(Cc2ccc(-c3ccccc3C(=O)O)cc2)nn1CCCC [Compound 138]	130 nM	6.31 nM	–
CCCCc1nc(CC)n(Cc2ccc(-c3ccccc3-c3nnn[nH]3)cc2)n1 [Compound 51]	8.7 nM	4.07 nM	–
CCCCc1nc(CCCN)n(Cc2ccc(-c3ccccc3-c3nnn[nH]3)cc2)n1 [Compound 82]	7.9 nM	3.16 nM	–

SMILES	IC50 [1]	Kb (rabbit aortic rings)	Assay B pA2 (result given as symbol) (rabbit aortic rings)
CCCCc1nc(Cc2ccc(-c3ccccc3-c3nnn[nH]3)nc2)n(CC(CC)CC)n1 [Compound 168]	420 nM	20.4 nM	–
CCCCc1nc(CC(CC)CC)nn1Cc1ccc(-c2ccccc2-c2nnn[nH]2)nc1 [Compound 262]	530 nM	603 nM	–
CCCCc1nc(C(F)(F)C(F)(F)F)nn1Cc1ccc(-c2ccccc2-c2nnn[nH]2)cc1 [Compound 80]	25 nM	7.94 nM	–
CCCCc1nn(CCCC)c(=O)n1Cc1ccc(-c2ccccc2C(=O)O)cc1 [Compound 89]	18 nM	12.6 nM	–
CCCCCc1nc(Cc2ccc(-c3ccccc3-c3nnn[nH]3)nc2)n(CCCC)n1 [Compound 167]	370 nM	83.2 nM	–
CCCCc1cn(CCc2cccs2)c(=O)n1Cc1ccc(-c2ccccc2-c2nnn[nH]2)cc1 [Compound 145]	0.48 nM	200 nM	–
CCCCc1nn(CCCc2ccccc2)c(=O)n1Cc1ccc(-c2ccccc2-c2nn[nH]n2)cc1 [Compound 92]	35 nM	12.6 nM	–
CCCn1nc(C(F)(F)CC)nc1Cc1ccc(-c2ccccc2-c2nnn[nH]2)nc1 [Compound 178]	88 nM	28.8 nM	–
CCCCc1nn(CC(=O)OCC)c(=O)n1Cc1ccc(-c2ccccc2-c2nn[nH]n2)cc1 [Compound 97]	280 nM	20 nM	–
CCCCn1nc(C(=O)NC(C)(C)C)nc1Cc1ccc(-c2ccccc2-c2nnn[nH]2)nc1 [Compound 184]	1100 nM	166 nM	–
CCCCc1nc(CCC2CCCCC2)nn1Cc1ccc(-c2ccccc2-c2nnn[nH]2)cc1 [Compound 54]	3100 nM	955 nM	–
CCCCc1nn(Cc2cccc3ccccc23)c(=O)n1Cc1ccc(-c2ccccc2-c2nn[nH]n2)cc1 [Compound 99]	280 nM	316 nM	–
CCCCc1nn(C(Cc2ccccc2)C(=O)c2ccccc2)c(=O)n1Cc1ccc(-c2ccccc2-c2nn[nH]n2)cc1 (stereo not shown) [Compound 105]	290 nM	251 nM	–
CCCCc1nc(Cc2ccc(-c3ccccc3-c3nnn[nH]3)cc2)nn1CCCC [Compound 140]	0.031 nM	7.94 nM	–
CCCCc1nc(C)n(Cc2ccc(-c3ccccc3C(=O)O)cc2)n1 [Compound 88]	50 nM	20 nM	–
CCCCc1cn(-c2ccccc2Cl)c(=O)n1Cc1ccc(-c2ccccc2-c2nnn[nH]2)nc1 [Compound 227]	89 nM	28.2 nM	–
CCCCc1nc(CC(OCC)OCC)nn1Cc1ccc(-c2ccccc2-c2nnn[nH]2)cc1 [Compound 49]	120 nM	87.1 nM	–

The next lines start with results.

IC50 [1]	SMILES	Kb (rabbit aortic rings)	Assay B pA2 (result given as symbol) (rabbit aortic rings)
350 nM	CCCCc1nc(C(F)(F)CCC)nn1Cc1ccc(-c2ccccc2-c2nnn[nH]2)nc1 [Compound 258]	145 nM	–
480 nM	CCCCc1nc(CCC)nn1Cc1ccc(-c2ccccc2-c2nnn[nH]2)cc1 [Compound 25]	158 nM	–
43 nM	CCCCc1nn(CC(OCC(=O)O)c2ccccc2)c(=O)n1Cc1ccc(-c2ccccc2-c2nn[nH]n2)cc1 (stereo not shown) [Compound 102]	20 nM	–
400 nM	CCCCc1nn(CCCCC(=O)O)c(=O)n1Cc1ccc(-c2ccccc2-c2nn[nH]n2)cc1 [Compound 114]	398 nM	–
140 nM	CCCCc1nc(C(F)F)nn1Cc1ccc(-c2ccccc2-c2nnn[nH]2)cc1 [Compound 58]	355 nM	–
22 nM	CCCCc1nn(CC(=O)O)c(=O)n1Cc1ccc(-c2ccccc2-c2nn[nH]n2)cc1 [Compound 98]	7.94 nM	–
220 nM	CCCCc1nc(Cc2ccc(-c3ccccc3C(=O)O)cc2)n(CCCC)n1 [Compound 137]	5.01 nM	–
410 nM	CCCCn1nc(/C=C/c2cccs2)nc1Cc1ccc(-c2ccccc2-c2nnn[nH]2)nc1 [Compound 165]	126 nM	–
70 nM	CCCCn1nc(C(F)CCC)nc1Cc1ccc(-c2ccccc2-c2nnn[nH]2)nc1 (stereo not shown) [Compound 172]	70.8 nM	–
0.072 nM	CCCCc1cn(-c2ccccc2Cl)c(=O)n1Cc1ccc(-c2ccccc2-c2nnn[nH]2)cc1 [Compound 146]	398 nM	–
41 nM	CCCCc1nc(C(OC)OC)nn1Cc1ccc(-c2ccccc2-c2nnn[nH]2)cc1 [Compound 35]	56.2 nM	–
12000 nM	CCCCc1nc(CF)n(Cc2ccc(-c3ccccc3-c3nnn[nH]3)cc2)n1 [Compound 71]	–	* (Antagonist Activity not observed up to 10 μM of test compound.)
12 nM	CCCCc1nn(CCC(C)CC(C)(C)C)c(=O)n1Cc1ccc(-c2ccccc2-c2nn[nH]n2)cc1 (stereo not shown) [Compound 103]	10 nM	–
0.088 nM	CCCCc1cn(CCc2ccccc2)c(=O)n1Cc1ccc(-c2ccccc2-c2nnn[nH]2)cc1 [Compound 144]	20 nM	–
23 nM	CCCCc1ncn(Cc2ccc(-c3ccccc3-c3nnn[nH]3)cc2)n1 [Compound 65]	14.1 nM	–
4.4 nM	CCCCc1nc(CNC(=O)OC(C)(C)C)n(Cc2ccc(-c3ccccc3-c3nnn[nH]3)cc2)n1 [Compound 45]	3.89 nM	–
3.6 nM	CCCCc1nc(CCCN)nn1Cc1ccc(-c2ccccc2-c2nnn[nH]2)cc1 [Compound 83]	5.01 nM	–
180 nM	CCCCc1nn(CC(=O)c2cc(OC)ccc2OC)c(=O)n1Cc1ccc(-c2ccccc2-c2nn[nH]n2)cc1 [Compound 107]	5.01 nM	–
7.2 nM	CCCCc1nc(CCCC)n(Cc2ccc(-c3ccccc3-c3nnn[nH]3)cc2)n1 [Compound 14]	1.45 nM	–
